Data set [1] concerns retinoid X receptor (RXR) [类视黄醇X受体]. Nature of the data set: Luciferase reporter gene assay for RXR transcriptional activation (Example 9). The following applies: COS-1 cells; for RXR agonist activity: relative to transcriptional activity with 1 μM bexarotene set to 1. The format is cell-based.
Data set [2] concerns the target T1, RXRα protein (ligand binding domain (LBD)) [RXRα蛋白质(配体结合域(LBD))] (Homo sapiens, UniProt P19793).
T1 construct: 关于RXRα蛋白质(配体结合域(LBD)),将Active Motif社制的物质以100nM使用; purchased Active Motif
T1 sequence (P19793 227-458 limits assumed): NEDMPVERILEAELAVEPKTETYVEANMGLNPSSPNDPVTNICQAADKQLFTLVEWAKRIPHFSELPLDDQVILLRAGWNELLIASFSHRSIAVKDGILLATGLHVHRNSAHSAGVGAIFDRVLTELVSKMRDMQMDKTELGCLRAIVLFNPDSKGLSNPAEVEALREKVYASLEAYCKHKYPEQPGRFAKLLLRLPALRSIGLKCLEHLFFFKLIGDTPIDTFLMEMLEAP
Nature of the data set: Detection of RXR binding of RXR ligands with compound 44 (Example 15). The following applies: test compound 1 μM, compound 44 30 nM, RXRα-LBD 100 nM.

A short description of data set [3]: Blood concentration after oral administration to mice (Example 17). The format is in vivo. The conditions noted are these: mouse (male ICR, 6 weeks).
Data set [4] relates to NFκB. The conditions noted are these: LPS 1 ng/mL, 24 h; relative to LPS without test compound as 100%.
Data set [5] has as its target T1, RXRα protein (ligand binding domain (LBD)) [RXRα蛋白质(配体结合域(LBD))]. Nature of the data set: RXR binding of RXR ligands evaluated with compound 10 as fluorescent probe (Example 13). The following applies: RXRα-LBD 100 nM, compound 10 100 nM; from EC50 by Cheng-Prusoff equation.
Data set [6] deals with T2, full-length RXRα protein [全长RXRα蛋白质] (Homo sapiens, UniProt P19793).
T2 construct: 全长RXRα蛋白质使用3μM
T2 sequence (P19793 1-462): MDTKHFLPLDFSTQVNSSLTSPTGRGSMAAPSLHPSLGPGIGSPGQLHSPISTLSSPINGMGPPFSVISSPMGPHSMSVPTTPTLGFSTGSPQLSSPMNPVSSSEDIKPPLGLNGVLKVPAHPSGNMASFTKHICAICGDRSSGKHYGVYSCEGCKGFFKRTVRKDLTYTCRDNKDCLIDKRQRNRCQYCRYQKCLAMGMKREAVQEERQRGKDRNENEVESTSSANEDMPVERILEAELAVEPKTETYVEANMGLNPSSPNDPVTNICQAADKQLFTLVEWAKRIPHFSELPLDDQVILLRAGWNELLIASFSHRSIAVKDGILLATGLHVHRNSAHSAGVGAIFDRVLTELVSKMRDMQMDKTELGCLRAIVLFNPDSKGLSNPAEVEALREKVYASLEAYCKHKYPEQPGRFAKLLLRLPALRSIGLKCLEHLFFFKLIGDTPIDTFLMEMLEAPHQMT
Put plainly: Combined assay: RXR activation by fluorescence polarization of fluorescein-PGC1a coactivator peptide (Example 16). The format is biochemical. The following applies: test compound 10 μM, full-length RXRα 3 μM, compound 10 3 μM, fluorescein-PGC1a 30 nM.

Molecules are shown by their SMILES.

`Cc1cc(OC(C)C)c(C(C)C)cc1-c1cc2cc(C(=O)O)c(=O)oc2cc1O` [化合物30]: the RXR agonist activity entry in data set [1] is “确认到RXR激动剂活性”.

Consider `COc1cc2c(cc1-c1cc3cc(C(=O)O)c(=O)oc3cc1O)C(C)(C)CCC2(C)C` [化合物23a], for which the RXR agonist activity result in data set [1] is recorded as “确认到RXR激动剂活性”. As to `CCCOc1cc2c(cc1-c1cc3cc(C(=O)O)c(=O)oc3cc1O)C(C)(C)CCC2(C)C` [化合物23b], the RXR agonist activity result in data set [1] is “确认到RXR激动剂活性”.

For `CCN(c1ccc(C(=O)O)cn1)c1cc(OCC(C)C)c(C(C)C)cc1/C=C/c1ccccc1` [NEt-SB], the “change of fluorescence intensity of compound 44 by test compound” value in data set [2] was “荧光强度减少”. Take `CCCCCOc1cc2c(cc1-c1cc3cc(C(=O)O)c(=O)oc3cc1O)C(C)(C)CCC2(C)C` [化合物23c]: in data set [1] (in the presence of the RXR agonist NEt-TMN (printed for compound 44; others tested similarly)), the RXR antagonist activity result is on record as “确认到RXR拮抗剂活性”. In data set [3] (in vivo, 30 mg/kg oral, 0.5 h after administration), `Cc1cc2c(cc1-c1cc3cc(C(=O)O)c(=O)oc3cc1O)C(C)(C)CCC2(C)C` [化合物10] returned a concentration at 0.5 h of approximately 3000 nM. The disappearance from blood result in data set [3] (30 mg/kg oral, 0.5, 1, 3 and 6 h) is reported as “时间依赖性地从血液中消失”. The “SEAP activity / inhibitory activity on NFκB transcriptional activity” value in data set [4] was “抑制SEAP活性,显示对于NFκB的抑制活性”.

As for `Cc1cc2c(cc1-n1c(C(F)(F)F)nc3cc(C(=O)O)ccc31)C(C)(C)CCC2(C)C` [CBTF-PMN], the inhibition constant Ki in data set [5] is 73 nM.

As for `CCCCCCOc1cc2c(cc1N(C)c1ncc(C(=O)O)cn1)C(C)(C)CCC2(C)C` [PA452], in data set [5], the Ki was determined as 108 nM. Further, the “fluorescence polarization of fluorescein-PGC1a” value in data set [6] is given as “减少”.

The values above are taken from patent CN108290841A, “具有荧光性的类视黄醇x受体结合性分子及其用途” (Okayama University NUC, priority 2015, dated 2017).
